Laboratory results published in PubChem BioAssay AID1963429 (Molecular Pharmacology Branch, DTP, NCI, 2024).

Tested on: 126254-015-R-J1-PDC complex spheroid growth, % test/control
Test: Anticancer human tumor 126254-015-R-J1-PDC patient-derived soft tissue sarcoma cell line growth inhibition [Asc]
Conditions: for IC50: curve of first compound; for viability, T/C: stronger effect = lower value
Procedure, shortened: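 Concentration series start at each agent's clinical Cmax, or at 10 microM when none is established, and drop in half-log steps; agents are applied alone or together to complex spheroids built with HUVEC and hMSC.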

[1] = second compound 0.1 µM, first compound 0.0316 µM
[2] = second compound 0.1 µM, first compound 0.1 µM
[3] = second compound 0.1 µM, first compound 0.316 µM
[4] = second compound 0.1 µM, first compound 1 µM
[5] = second compound 0.1 µM, first compound 3.16 µM
[6] = second compound 0.1 µM, first compound 10 µM
[7] = second compound 0.316 µM, first compound 0.0316 µM
[8] = second compound 0.316 µM, first compound 0.1 µM
[9] = second compound 0.316 µM, first compound 0.316 µM
[10] = second compound 0.316 µM, first compound 1 µM
[11] = second compound 0.316 µM, first compound 3.16 µM
[12] = second compound 0.316 µM, first compound 10 µM
[13] = second compound 1 µM, first compound 0.0316 µM
[14] = second compound 1 µM, first compound 0.1 µM
[15] = second compound 1 µM, first compound 0.316 µM
[16] = second compound 1 µM, first compound 1 µM
[17] = second compound 1 µM, first compound 3.16 µM
[18] = second compound 1 µM, first compound 10 µM
[19] = second compound 3.16 µM, first compound 0.0316 µM
[20] = second compound 3.16 µM, first compound 0.1 µM
[21] = second compound 3.16 µM, first compound 0.316 µM
[22] = second compound 3.16 µM, first compound 1 µM
[23] = second compound 3.16 µM, first compound 3.16 µM
[24] = second compound 3.16 µM, first compound 10 µM
[25] = second compound 10 µM, first compound 0.0316 µM
[26] = second compound 10 µM, first compound 0.1 µM
[27] = second compound 10 µM, first compound 0.316 µM
[28] = second compound 10 µM, first compound 1 µM
[29] = second compound 10 µM, first compound 3.16 µM
[30] = second compound 10 µM, first compound 10 µM
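Note: spheroids exposed to compound for seven days.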
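Throughout, for viability, T/C: 100% = DMSO vehicle control wells.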

Row | Compound | IC50 (second compound 0.1 µM) | IC50 (second compound 0.316 µM) | IC50 (second compound 1 µM) | IC50 (second compound 3.16 µM) | IC50 (second compound 10 µM) | viability, T/C [1] | viability, T/C [2] | viability, T/C [3] | viability, T/C [4] | viability, T/C [5] | viability, T/C [6] | viability, T/C [7] | viability, T/C [8] | viability, T/C [9] | viability, T/C [10] | viability, T/C [11] | viability, T/C [12] | viability, T/C [13] | viability, T/C [14] | viability, T/C [15] | further results
1 | C#Cc1c(F)ccc2cc(O)cc(-c3ncc4c(N5CC6CCC(C5)N6)nc(OCC56CCCN5CC(F)C6)nc4c3F)c12 (stereo not given) + Cc1c(S(C)(=O)=O)c(-c2cc(F)cc(N3CCN(c4ccc(NS(=O)(=O)c5ccc(NC(CCN6CCC(C(=O)OCCCP(=O)(O)O)CC6)CSc6ccccc6)c(S(=O)(=O)C(F)(F)F)c5)cc4)CC3)c2)c(-c2ccc(Cl)cc2)n1C(C)C | > 10000 nM | > 10000 nM | 6580 nM | 7170 nM | 9190 nM | 85.4% | 92.8% | 90.4% | 80.9% | 72.4% | 59.9% | 88.5% | 86% | 80.9% | 79.2% | 72.4% | 54.5% | 84% | 92.2% | 73.8% | viability, T/C [16]: 81.9%; viability, T/C [17]: 72.3%; viability, T/C [18]: 37.4%; viability, T/C [19]: 82.6%; viability, T/C [20]: 90.8%; viability, T/C [21]: 83.4%; viability, T/C [22]: 79.5%; viability, T/C [23]: 65.8%; viability, T/C [24]: 43.6%; viability, T/C [25]: 87.1%; viability, T/C [26]: 88.4%; viability, T/C [27]: 81.2%; viability, T/C [28]: 75.5%; viability, T/C [29]: 75%; viability, T/C [30]: 47.8%
2 | C=C(F)C(=O)N1CCN(c2nc(OCC3CCCN3C)nc3c2CCN(c2cccc4cccc(Cl)c24)C3)CC1CC#N (stereo not given) + Cc1c(S(C)(=O)=O)c(-c2cc(F)cc(N3CCN(c4ccc(NS(=O)(=O)c5ccc(NC(CCN6CCC(C(=O)OCCCP(=O)(O)O)CC6)CSc6ccccc6)c(S(=O)(=O)C(F)(F)F)c5)cc4)CC3)c2)c(-c2ccc(Cl)cc2)n1C(C)C | 1860 nM | 1390 nM | 1360 nM | 772 nM | 1390 nM | 87.2% | 97.2% | 89.6% | 76.5% | 27.4% | 0.18% | 83% | 91.2% | 80.2% | 61% | 22.8% | 0.13% | 83.5% | 66.3% | 76.3% | viability, T/C [16]: 57.7%; viability, T/C [17]: 27.2%; viability, T/C [18]: 0.14%; viability, T/C [19]: 88.3%; viability, T/C [20]: 75%; viability, T/C [21]: 61.5%; viability, T/C [22]: 51.7%; viability, T/C [23]: 20.5%; viability, T/C [24]: 0.13%; viability, T/C [25]: 79.2%; viability, T/C [26]: 77.5%; viability, T/C [27]: 77.8%; viability, T/C [28]: 62.4%; viability, T/C [29]: 18.5%; viability, T/C [30]: 0.2%
